Assay results: US7884107B2, “Substituted piperidines that increase P53 activity and the uses thereof” (Merck, priority 2006, dated 2011)

Biological target: HDM2 protein (Homo sapiens, UniProt Q00987)
Test: fluorescence polarization screening assay (FP)
Format: binding
Details: inhibitory concentration that achieves 50% of maximal activity

HDM2 protein, sequence (Q00987 whole entry): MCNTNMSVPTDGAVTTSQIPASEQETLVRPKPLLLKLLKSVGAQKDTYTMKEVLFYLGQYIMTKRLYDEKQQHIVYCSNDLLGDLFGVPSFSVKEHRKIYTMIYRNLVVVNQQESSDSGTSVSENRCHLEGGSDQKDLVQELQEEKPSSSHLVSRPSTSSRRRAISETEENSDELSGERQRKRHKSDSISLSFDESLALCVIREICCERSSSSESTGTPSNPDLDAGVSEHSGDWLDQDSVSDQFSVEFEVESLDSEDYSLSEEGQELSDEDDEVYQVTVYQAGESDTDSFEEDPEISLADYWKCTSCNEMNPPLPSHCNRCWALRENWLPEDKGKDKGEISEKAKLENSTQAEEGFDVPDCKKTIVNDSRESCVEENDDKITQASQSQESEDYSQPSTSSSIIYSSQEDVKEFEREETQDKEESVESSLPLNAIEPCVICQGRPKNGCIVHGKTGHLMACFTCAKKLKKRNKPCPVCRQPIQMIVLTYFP

IC50 [nM]	SMILES
510	CC(=O)Nc1ccccc1N1CCN(C(=O)C2(Oc3ccc(Br)c(F)c3)CCCN(C(=O)c3cnccc3C(F)(F)F)C2)CC1 (centres unmarked) [AU]
950	COc1ccccc1N1CCN(C(=O)C2(Oc3ccc(C(F)(F)F)cc3)CCCN(C(=O)c3cnccc3C(F)(F)F)C2)C(C(=O)NCCO)C1 (centres unmarked) [CR]
